Reference: article PMC5947694, “Structure of the mouse acidic amino acid decarboxylase GADL1” (Acta Crystallographica. Section F, Structural Biology …, 2018)

T1: MmGADL1 (mouse glutamic acid decarboxylase-like protein 1) (Mus musculus, UniProt Q80WP8)
T1 construct: gene Gadl1; residues 1-502, N-terminal His6 tag and TEV site kept; expressed in E. coli; homodimer; residues 11-502 built, loop about 340-350 disordered
T1 sequence (Q80WP8 49-526 isoform Q80WP8-2): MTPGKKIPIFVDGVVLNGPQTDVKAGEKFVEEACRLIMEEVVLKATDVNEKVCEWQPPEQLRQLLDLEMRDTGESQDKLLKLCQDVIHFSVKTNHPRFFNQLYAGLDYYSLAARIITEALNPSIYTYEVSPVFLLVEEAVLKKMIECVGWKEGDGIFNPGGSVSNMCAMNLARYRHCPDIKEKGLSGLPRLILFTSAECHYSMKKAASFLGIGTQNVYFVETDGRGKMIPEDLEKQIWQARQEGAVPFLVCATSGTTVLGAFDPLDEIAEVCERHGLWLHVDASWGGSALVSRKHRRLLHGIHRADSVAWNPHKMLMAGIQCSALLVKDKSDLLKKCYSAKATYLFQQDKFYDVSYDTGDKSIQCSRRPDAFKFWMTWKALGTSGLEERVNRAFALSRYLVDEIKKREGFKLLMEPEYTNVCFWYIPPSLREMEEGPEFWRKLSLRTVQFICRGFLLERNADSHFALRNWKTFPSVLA

B1: mouse glutamic acid decarboxylase-like protein 1 (MmGADL1), His6-tagged, residues 1-502 (enzyme)
chain: MGPHHHHHHLESTSLYKKAGSENLYFQGMTPGKKIPIFVDGVVLNGPQTDVKAGEKFVEEACRLIMEEVVLKATDVNEKVCEWQPPEQLRQLLDLEMRDTGESQDKLLKLCQDVIHFSVKTNHPRFFNQLYAGLDYYSLAARIITEALNPSIYTYEVSPVFLLVEEAVLKKMIECVGWKEGDGIFNPGGSVSNMCAMNLARYRHCPDIKEKGLSGLPRLILFTSAECHYSMKKAASFLGIGTQNVYFVETDGRGKMIPEDLEKQIWQARQEGAVPFLVCATSGTTVLGAFDPLDEIAEVCERHGLWLHVDASWGGSALVSRKHRRLLHGIHRADSVAWNPHKMLMAGIQCSALLVKDKSDLLKKCYSAKATYLFQQDKFYDVSYDTGDKSIQCSRRPDAFKFWMTWKALGTSGLEERVNRAFALSRYLVDEIKKREGFKLLMEPEYTNVCFWYIPPSLREMEEGPEFWRKLSLVAPAIKEKMMKKGSLMLGYQPHRGKVNFFRQVVISPQVSREDMDFLLDEIDSLGRDM
modifications: PLP covalently bound to the N-epsilon atom of Lys314 through a Schiff base linkage (seen in the crystal)

What was measured:
[1] = target: T1, MmGADL1 (mouse glutamic acid decarboxylase-like protein 1); assay: X-ray crystallography, […] Å (crystal form […]); format: binding; conditions: covalent; Schiff base (internal aldimine) with Lys314; active site at dimer interface, both sites occupied
[2] = target: the molecule itself; assay: SAXS; 1.6-6.5 mg/ml in 20 mM HEPES pH 7.4, 200 mM NaCl, 293 K; molecular mass from forward scattering I(0) against a monomeric BSA standard

Row | Molecule | X-ray crystallography, 3.0 Å (crystal form 1) [1] | stoichiometry N [2]
1 | Cc1ncc(COP(=O)(O)O)c(C=O)c1O [PLP] | Both active sites in the dimer are occupied by the PLP cofactor, which is covalently bound | –
2 | B1 | – | 2 ratio to theoretical monomer
